From patent publication US11945801B2, “Bicyclic aza compounds as muscarinic M1 and/or M4 receptor agonists” (Heptares Therapeutics Limited, priority 2018, dated 2024) come the findings set out here.

Holding throughout (assay type): cell-based
The target of assay [1] is T1, human muscarinic M3 receptor (Homo sapiens, UniProt P20309).
T1 construct: expressed in transfected cells
The assay is described as follows: Alphascreen Surefire phospho-ERK1/2 functional assay, M3. As to conditions: for Emax: CHO. The method, then:
(§1) ERK1/2 phosphorylation is a downstream consequence of both Gq/11 and Gi/o protein coupled receptor activation, making it highly suitable for the assessment of M1, M3 (Gq/11 coupled) and M2, M4 receptors (Gi/o coupled), rather than using different assay formats for different receptor subtypes. CHO cells stably expressing the human muscarinic M1, M2, M3 or M4 receptor were plated (25K/well) onto 96-well tissue culture plates in MEM-alpha+10% dialysed FBS. Once adhered, cells were serum-starved overnight. Agonist stimulation was performed by the addition of 5 μL agonist to the cells for 5 min (37° C.). Media was removed and 50 μL of lysis buffer added. After […], a 4 μL sample was transferred to 384-well plate and 7 μL of detection mixture added.
(§2) Isomer assignment (Isomer 1, Isomer 2, etc.) is based on the retention time of the compound using the separation technique that was performed in the final purification step. By implication, this could be reversed phase HPLC, chiral HPLC or chiral SFC retention time, and this will vary from compound to compound.

The target in assay [2] is T2, human muscarinic M2 receptor (Homo sapiens, UniProt P08172).
T2 sequence (P08172 1-466): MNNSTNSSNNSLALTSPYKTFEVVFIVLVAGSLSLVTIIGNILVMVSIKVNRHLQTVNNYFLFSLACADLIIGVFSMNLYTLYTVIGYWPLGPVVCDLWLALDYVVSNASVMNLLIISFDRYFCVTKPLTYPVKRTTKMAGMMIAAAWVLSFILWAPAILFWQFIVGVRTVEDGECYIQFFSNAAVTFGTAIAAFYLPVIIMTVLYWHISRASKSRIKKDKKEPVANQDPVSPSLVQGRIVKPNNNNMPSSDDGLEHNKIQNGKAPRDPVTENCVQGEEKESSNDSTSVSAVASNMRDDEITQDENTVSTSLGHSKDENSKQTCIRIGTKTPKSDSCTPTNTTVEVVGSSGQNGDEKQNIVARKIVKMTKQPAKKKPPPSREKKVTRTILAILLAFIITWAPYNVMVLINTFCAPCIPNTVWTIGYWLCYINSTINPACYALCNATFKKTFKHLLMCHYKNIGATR
Nature of the assay: Alphascreen Surefire phospho-ERK1/2 functional assay, M2. Conditions: for Emax: CHO. The method, then:
as §1, §2
(In general: Alpha assays give light when donor and acceptor beads are brought close together.)

The target of assay [3] is T3, human muscarinic M1 receptor (Homo sapiens, UniProt P11229).
T3 sequence (P11229 1-460): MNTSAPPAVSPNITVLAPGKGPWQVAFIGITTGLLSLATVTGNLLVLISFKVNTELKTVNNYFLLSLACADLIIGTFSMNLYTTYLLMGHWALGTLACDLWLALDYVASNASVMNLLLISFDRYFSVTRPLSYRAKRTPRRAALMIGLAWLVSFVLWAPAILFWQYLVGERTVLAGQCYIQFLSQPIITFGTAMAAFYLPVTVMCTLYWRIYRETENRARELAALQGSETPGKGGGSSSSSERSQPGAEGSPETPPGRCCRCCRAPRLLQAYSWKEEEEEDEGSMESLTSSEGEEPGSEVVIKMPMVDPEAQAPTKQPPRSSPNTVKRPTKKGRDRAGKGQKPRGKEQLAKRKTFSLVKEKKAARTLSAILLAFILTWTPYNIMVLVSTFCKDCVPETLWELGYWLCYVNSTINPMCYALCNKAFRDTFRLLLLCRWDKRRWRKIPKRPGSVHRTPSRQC
The assay is described as follows: Alphascreen Surefire phospho-ERK1/2 functional assay, M1. As to conditions: for EC50: agonist 5 min, 37° C.; for Emax: CHO. The method, then: as §1, §2

Assay [4] concerns the target T4, human muscarinic M4 receptor (Homo sapiens, UniProt P08173).
T4 construct: expressed in transfected cells
T4 sequence (P08173 1-479): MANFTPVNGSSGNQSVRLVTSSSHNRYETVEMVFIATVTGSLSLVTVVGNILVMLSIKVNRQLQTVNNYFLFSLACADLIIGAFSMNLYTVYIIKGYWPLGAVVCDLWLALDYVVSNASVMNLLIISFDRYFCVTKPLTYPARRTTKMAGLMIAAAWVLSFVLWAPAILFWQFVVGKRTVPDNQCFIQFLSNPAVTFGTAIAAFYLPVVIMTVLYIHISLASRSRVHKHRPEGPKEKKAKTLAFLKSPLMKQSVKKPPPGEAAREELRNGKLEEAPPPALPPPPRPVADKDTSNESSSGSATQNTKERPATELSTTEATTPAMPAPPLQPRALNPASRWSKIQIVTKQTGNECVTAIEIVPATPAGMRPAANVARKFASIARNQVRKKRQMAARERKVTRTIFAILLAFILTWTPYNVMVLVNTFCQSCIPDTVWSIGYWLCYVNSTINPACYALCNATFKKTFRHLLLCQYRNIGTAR
Nature of the assay: Alphascreen Surefire phospho-ERK1/2 functional assay, M4. Conditions: for EC50: agonist 5 min, 37° C., read-out: pEC50 M4 (converted); for Emax: CHO. The method, then:
as §1, §2

Setting [5] is: CHO cells stably expressing human M3, agonist 5 min, 37° C., read-out: pEC50 M3 (converted).
The mark [6] stands for this setting: CHO cells stably expressing human M2, agonist 5 min, 37° C., read-out: pEC50 M2 (converted).
Where [7] appears, read: CHO cells stably expressing human M1, read-out: pEC50 M1 (converted).
The mark [8] stands for this setting: CHO cells stably expressing human M4.
[9] abbreviates: read-out: % Emax cf. ACh, M3, CHO cells stably expressing human M3, Emax relative to ACh.
[10] abbreviates: read-out: % Emax cf. ACh, M2, CHO cells stably expressing human M2, Emax relative to ACh.
Where [11] appears, read: read-out: % Emax cf. ACh, M1, CHO cells stably expressing human M1, Emax relative to ACh.
Setting [12] is: read-out: % Emax cf. ACh, M4, CHO cells stably expressing human M4, Emax relative to ACh.

Read-outs that look alike come from different tables or passages of the source. Where only a bound is given, the exact number is not on record here.

T1 sequence (P20309 whole entry): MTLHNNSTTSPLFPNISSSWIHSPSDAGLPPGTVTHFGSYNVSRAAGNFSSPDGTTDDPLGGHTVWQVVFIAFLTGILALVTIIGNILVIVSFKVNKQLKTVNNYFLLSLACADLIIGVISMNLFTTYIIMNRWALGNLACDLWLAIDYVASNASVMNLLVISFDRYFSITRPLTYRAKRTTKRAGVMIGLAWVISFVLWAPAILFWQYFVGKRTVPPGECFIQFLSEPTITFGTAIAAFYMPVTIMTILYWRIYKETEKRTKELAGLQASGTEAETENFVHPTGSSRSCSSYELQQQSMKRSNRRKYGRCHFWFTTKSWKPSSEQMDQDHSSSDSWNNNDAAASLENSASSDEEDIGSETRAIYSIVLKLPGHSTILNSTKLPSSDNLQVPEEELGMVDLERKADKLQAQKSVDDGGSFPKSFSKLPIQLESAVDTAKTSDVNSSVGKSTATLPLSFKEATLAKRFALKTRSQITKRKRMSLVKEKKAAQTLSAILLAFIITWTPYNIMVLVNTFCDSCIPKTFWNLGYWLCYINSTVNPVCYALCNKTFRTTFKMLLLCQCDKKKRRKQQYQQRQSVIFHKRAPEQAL

By Emax is commonly meant the maximal effect, on the per cent scale that the assay sets. Take `CCOC(=O)N1C2CCC1CC(N1CC(CC(=O)N3CCCCC3)C1)C2` (mixture of isomers) [Example 1-4 Isomer mixture, Ethyl-3-(3-(2-oxo-2-(piperidin-1-yl)ethyl)azetidin-1-yl)-8-azabicyclo[3.2.1]octane-8-carboxylate]: the EC50 in assay [1] (setting [5]) was more than 20000 nM; in assay [2] (setting [6]) it was more than 20000 nM; in assay [3] (setting [7]), 309 nM; in assay [4] (setting [8]), more than 20000 nM. Moreover, the maximal effect (Emax) in assay [1] (read-out: % Emax cf. ACh, M3) worked out at 6%; in assay [2] (read-out: % Emax cf. ACh, M2), 21%; in assay [3] (read-out: % Emax cf. ACh, M1), 84%; in assay [4] (read-out: % Emax cf. ACh, M4), 17%.

With `CCOC(=O)N1C2CCC1CC(N1CC(OC(=O)N3CCCCCC3)C1)C2` (mixture of isomers) [Example 5-1 Isomer mixture, Ethyl 3-(3-((azepane-1-carbonyl)oxy)azetidin-1-yl)-8-azabicyclo[3.2.1]octane-8-carboxylate], the EC50 is more than 20000 nM in assay [1]; more than 20000 nM in assay [2]; 89.1 nM in assay [3] (pEC50 M1, CHO cells stably expressing human M1); 427 nM in assay [4] (setting [8]). The Emax is 45% in assay [1] (read-out: % Emax cf. ACh, M3); 18% in assay [2] (read-out: % Emax cf. ACh, M2); 83% in assay [3] (read-out: % Emax cf. ACh, M1); 39% in assay [4] (read-out: % Emax cf. ACh, M4).

As for `CCOC(=O)N1C2CCC1CC(N1CC(CC(=O)N(CC)CC)C1)C2` (single isomer, unassigned) [Example 1-1 Isomer 2, Ethyl-3-(3-(2-(diethylamino)-2-oxoethyl)azetidin-1-yl)-8-azabicyclo[3.2.1]octane-8-carboxylate], the EC50 in assay [1] (setting [5]) was more than 20000 nM; in assay [2] (setting [6]) it was 1260 nM; in assay [3] (setting [7]), 316 nM; in assay [4] (setting [8]), 200 nM. Besides, the Emax was determined as 28% in assay [1] (read-out: % Emax cf. ACh, M3); 58% in assay [2] (read-out: % Emax cf. ACh, M2); 100% in assay [3] (read-out: % Emax cf. ACh, M1); 85% in assay [4] (read-out: % Emax cf. ACh, M4).

In the case of `CCOC(=O)N1CC2CCC1CC2N1CC(CC(=O)N(CC)CC)C1` (single isomer, unassigned) [Example 2-1 Isomer 1, Ethyl-5-(3-(2-(diethylamino)-2-oxoethyl)azetidin-1-yl)-2-azabicyclo[2.2.2]octane-2-carboxylate], the EC50 was more than 20000 nM in assay [1] (setting [5]), more than 20000 nM in assay [2] (setting [6]), 209 nM in assay [3] (setting [7]) and more than 20000 nM in assay [4] (setting [8]). Further, the maximal effect (Emax) in assay [1] (setting [9]) worked out at 6%; in assay [2] (setting [10]) it was 13%; in assay [3] (setting [11]) it was 67%; in assay [4] (setting [12]), 9%.

With `CCOC(=O)N1CC2CCC1CC2N1CC(CC(=O)N(CC)C(C)C)C1` (single isomer, unassigned) [Example 2-2 Isomer 1, Ethyl-5-(3-(2-(ethyl(isopropyl)amino)-2-oxoethyl)azetidin-1-yl)-2-azabicyclo[2.2.2]octane-2-carboxylate], the EC50 was more than 20000 nM in assay [1] (setting [5]), more than 20000 nM in assay [2] (setting [6]), 19.1 nM in assay [3] (setting [7]) and 257 nM in assay [4] (setting [8]). Moreover, the Emax in assay [1] (setting [9]) turned out to be 12%; in assay [2] (setting [10]) it was 8%; in assay [4] (setting [12]) it was 36%. For the same compound, the “% Emax cf. ACh, M1” value in assay [3] (CHO cells stably expressing human M1, Emax relative to ACh, listed as 2-2 Isomer 1) was found to be 95%.

For the compound `CCOC(=O)N1CC2CCC1CC2N1CC(CC(=O)N(CC)C(C)C)C1` (single isomer, unassigned) [Example 2-2 Isomer 2, Ethyl-5-(3-(2-(ethyl(isopropyl)amino)-2-oxoethyl)azetidin-1-yl)-2-azabicyclo[2.2.2]octane-2-carboxylate], in assay [1] (CHO cells stably expressing human M3, Emax relative to ACh), the “% Emax cf. ACh, M3” value turned out to be 7%. Also, the “% Emax cf. ACh, M2” value in assay [2] (CHO cells stably expressing human M2, Emax relative to ACh) is listed as 6%. Further, in assay [3] (CHO cells stably expressing human M1, Emax relative to ACh, listed as 2-2 Isomer 2), the “% Emax cf. ACh, M1” value is 65%. The EC50 was 229 nM in assay [3] (setting [7]) and more than 20000 nM in assay [4] (setting [8]). Also, in assay [4] (CHO cells stably expressing human M4, Emax relative to ACh), the “% Emax cf. ACh, M4” value is listed as 31%.

For the compound `CCOC(=O)N1CC2CCC1CC2N1CC(CC(=O)N2CCCCC2)C1` (single isomer, unassigned) [Example 2-3 Isomer 1, Ethyl-5-(3-(2-oxo-2-(piperidin-1-yl)ethyl)azetidin-1-yl)-2-azabicyclo[2.2.2]octane-2-carboxylate], the EC50 is more than 20000 nM in assay [1] (setting [5]), more than 20000 nM in assay [2] (setting [6]), 204 nM in assay [3] (setting [7]) and 6460 nM in assay [4] (setting [8]). Also, the Emax in assay [1] (setting [9]) stood at 9%; in assay [2] (setting [10]), 10%; in assay [3] (setting [11]), 88%; in assay [4] (setting [12]) it was 46%.

In the case of `CCOC(=O)N1CC2CCC1CC2N1CC(CC(=O)N2CCC23CCC3)C1` (single isomer, unassigned) [Example 2-5 Isomer 1, Ethyl-5-(3-(2-oxo-2-(1-azaspiro[3.3]heptan-1-yl)ethyl)azetidin-1-yl)-2-azabicyclo[2.2.2]octane-2-carboxylate], the EC50 is more than 20000 nM in assay [1] (setting [5]), more than 20000 nM in assay [2] (setting [6]), 110 nM in assay [3] (setting [7]) and more than 20000 nM in assay [4] (setting [8]). The Emax came out at 35% in assay [1] (setting [9]), 53% in assay [2] (setting [10]), 64% in assay [3] (setting [11]) and 23% in assay [4] (setting [12]).

For the compound `CCOC(=O)N1C2CCCC1CC(N1CC(CC(=O)N3CCCCC3)C1)C2` (single isomer, unassigned) [Example 3-3 Isomer 1, Ethyl-3-(3-(2-oxo-2-(piperidin-1-yl)ethyl)azetidin-1-yl)-9-azabicyclo[3.3.1]nonane-9-carboxylate], the EC50 is more than 20000 nM in assay [1] (setting [5]), more than 20000 nM in assay [2] (setting [6]), 316 nM in assay [3] (setting [7]) and 1290 nM in assay [4] (setting [8]). The Emax in assay [1] (read-out: % Emax cf. ACh, M3) was 9%; in assay [2] (read-out: % Emax cf. ACh, M2) it was 5%; in assay [3] (read-out: % Emax cf. ACh, M1), 117%; in assay [4] (read-out: % Emax cf. ACh, M4) it was 55%.

As to `CCOC(=O)N1CCC2(CC(N3CC(OC(=O)N(CC)CC)C3)C2)C1` (single isomer, unassigned) [Example 4-2 Isomer 2, Ethyl 2-(3-((diethylcarbamoyl)oxy)azetidin-1-yl)-6-azaspiro[3.4]octane-6-carboxylate], the EC50 in assay [1] (setting [5]) is more than 20000 nM; in assay [2] (setting [6]) it was more than 20000 nM; in assay [3] (setting [7]) it was 158 nM; in assay [4] (setting [8]) it was 282 nM. The maximal response (Emax) turned out to be 17% in assay [1] (setting [9]), 14% in assay [2] (setting [10]), 105% in assay [3] (setting [11]) and 89% in assay [4] (setting [12]).
